# Measured values as given in a melting point compilation (Tetko et al.; mined from patent text by program, amines drawn as free bases though some values may be those of a salt).
row,SMILES,melting point [°C]
1,COc1ccc(COc2ccc(C(=O)Nc3ccc4cc(CN5CCCC5)cnc4c3C)cc2)cc1,192 to 193
2,C=CCC12CCN=C1C(Br)Cc1ccc(OC)cc12 (stereo not drawn),112 to 117
3,O=c1c2c([nH]n1-c1ccc(Cl)cc1)-c1ccccc1SC2,235 to 237
4,CCCCCCCCCc1c(C(=O)O)sc2cc(Br)ccc12,126 to 127
5,CNC(=O)c1ccccc1Nc1nc(Nc2cc3c(cc2OC)CCN(CCOC)CC3)ncc1Cl,109 to 112
6,CCOC(=O)c1nc(C)oc1C(=O)Cl,103 to 105
7,CCCCCCCN(CCCCCSc1ncnc2[nH]ncc12)C(=O)NC(C)C,81 to 83
8,COc1ccccc1NC(=O)Nc1nc(Nc2ccccc2-c2ccccc2)nc(N2CCCCC2C(=O)O)n1 (stereo not drawn),150 to 154
9,CCCNC(=S)Nc1nc(OCc2cccc(C#N)c2)ncc1F,163 to 165
10,CC(Cc1ccc(CCNS(=O)(=O)c2ccccc2)cc1)C(=O)O (stereo not drawn),113 to 115
11,CC1NC(c2ccc(Cl)cc2)=NO1 (stereo not drawn),110 to 112
12,CCc1nn2c(-c3ccc(Cl)cc3Cl)cccc2c1[N+](=O)[O-],147 to 149
13,CC(=O)SC(CC(=O)c1ccc(C)cc1)C(=O)O (stereo not drawn),81 to 85
14,O=C1NC(=O)C(c2ccc(-c3ccccc3)cc2)(N2CCN(c3ccc(N4C(=O)CCC4=O)cc3)CC2)C(=O)N1,310 to 311
15,CC1c2ccccc2NC(=O)N1CCCl (stereo not drawn),126
16,COc1cc(C(=O)Nc2c(Cl)cc3c(Br)n[nH]c3c2C(=O)NC2(C3CC3)CC2)n(-c2ncccc2Cl)n1,190 to 194
17,Cc1ccc(F)c(-c2cc(Nc3ccnc4cn(CC(O)CO)nc34)ccn2)n1 (stereo not drawn),182 to 184
18,Nc1ncc(-c2cc(Cl)c([N+](=O)[O-])c(Cl)c2Cl)c(N)n1,293 to 295
19,C(=Nc1ccc(Nc2ccccc2)cc1)Nc1ccc(Nc2ccccc2)cc1,173 to 175
20,Cc1ccc2c(c1)C=Cc1cc(C(C)C)ccc1C2c1cn(-c2ccnc(NCC(=O)Nc3nc(CC(=O)O)cs3)n2)c(=O)[nH]c1=O (stereo not drawn),215 to 220
21,NC(=O)c1ccc(Nc2nc(N)nc(Cc3c(Cl)ccc4[nH]ccc34)n2)cc1,204 to 205
22,CC(NC1=C(N=Nc2ccccc2)C(=O)SC1)c1ccccc1 (stereo not drawn),129 to 130
23,COc1ccc(CCC(=O)O)cc1C(=O)NCc1cccnc1,175 to 176
24,OCC1CC2CC2N1c1cncc(Br)c1 (stereo not drawn),90.4 to 93.5
25,CCOC(=O)CNc1c(N)c(=O)c1=O,231 to 233
26,CS(=O)(=O)N1C(=O)[C@H](C2CC2)[C@H]2[C@@H]1CCN2C(=O)OCc1ccccc1 (relative stereo),144 to 150
27,COc1cc(C(=O)N2CCC(CCN3CCC(Nc4nc5ccccc5n4Cc4nccn4Cc4ccccc4)CC3)(c3ccc(F)cc3)C2)cc(OC)c1OC (stereo not drawn),95 to 100

row,SMILES,melting point [°C]
1,CCCCC(C(=O)c1ccc(Cl)cc1)n1cncn1 (stereo not drawn),81 to 83
2,Cc1cccc(C2=CCN(CCCn3c(=O)[nH]c4cccc(C)c4c3=O)CC2)c1,155 to 160
3,N#CN1CCN2c3ccccc3Cc3ccccc3C2C1 (stereo not drawn),164 to 166
4,Cn1c(COc2ccc(CC3SC(=O)NC3=O)cc2)nc2ccc(Oc3ccc(NC(=S)NC4CCCCC4)cc3)cc21 (stereo not drawn),173 to 174
5,CC12C=CC(=O)C=C1CCC1C2C(=O)CC2(C)C(SCc3ccc(Cl)c(Cl)c3)CCC12 (stereo not drawn),131 to 133
6,COc1cc(C(=O)OC(C)(C)C)ccc1Cn1cc(C=O)c2ccc(C(=O)NCC3CCCC3)cc21,134 to 135
7,COc1ccc(-c2ccc(CCC#N)cc2)cc1,105 to 107
8,O=C(O)Cc1c(C(=O)c2cc(Cl)ccn2)[nH]c2ccc(Cl)cc12,243 to 244
9,CCCCc1nc(CO)c(S(=O)CC)n1Cc1ccc(-c2ccccc2C(=O)O)cc1 (stereo not drawn),240
10,CN(Cc1ccc2c(Br)c(OCC(=O)O)ccc2c1)C(=O)c1oc2ccccc2c1CCc1ccccc1,119 to 122
11,COc1ccc(CN2C(=O)CC[C@@]3(C)c4ccc(Cl)cc4CC[C@H]23)cc1 (relative stereo),55 to 60
12,CCCCc1nc(C)c(CCC(=S)N(C)C)c(=O)n1Cc1ccc(-c2ccccc2-c2nnn[nH]2)cc1,76.2 to 81.2
13,O=C(O)CN1C(=O)C(=CC2CC=CCC2)SC1=S (stereo not drawn),191 to 193
14,CC(=O)N1CCCn2nc(-c3ccncc3)c(-c3ccc(F)cc3)c21,184 to 185
15,CC(C)n1nc(-c2c(OC3CCCCC3)nc(N)nc2-c2ccccc2)ccc1=O,173 to 175
16,c1ccc2c(c1)CCCC2c1c[nH]cn1 (stereo not drawn),105 to 110
17,NC1(C2CCCC2=O)OCCO1 (stereo not drawn),134 to 136
18,NC(=S)NN=C(CCCCl)c1ccccc1,128 to 130
19,O=C1c2ccccc2C(=O)N1C1CCN(CCCc2c[nH]c3ccccc23)CC1,187 to 190
20,O=C1CCC(N2Cc3c(OCc4ccc5ccccc5c4)cccc3C2=O)C(=O)N1 (stereo not drawn),277 to 279
21,CCC(CSC#N)Nc1ccc(Cl)cc1[N+](=O)[O-] (stereo not drawn),126 to 128
22,Cc1ccc(-c2cccn2-c2ccc(S(N)(=O)=O)cc2)cc1,183 to 184
23,COc1ccccc1CNc1ccc2c(C(=N)NO)cccc2n1,161
24,O=C(Nc1cccc2c(Sc3ncc[nH]3)c(Br)cnc12)c1c(Cl)cccc1Cl,249 to 251
25,O=C(NCCCl)NOCc1ccccc1,67 to 68
26,N#Cc1ccc(NC(=S)Nc2ccc(NNC=O)cc2)cc1,180 to 182

# More lines, now with the values ahead:
row,melting point [°C],SMILES
1,238 to 239,CC(C)(C)CC(NC(=O)c1cccc(Cl)c1)Nc1c(Nc2cccnc2)c(=O)c1=O (stereo not drawn)
2,180,Cc1cc(COc2c(Cl)cc(C=O)cc2Cl)oc(=O)c1
3,174 to 176,CCOC(=O)c1cc2cc(-c3ccc(NC(C)=O)cc3)ccc2o1
4,117 to 119,CCOc1ccc(OCC(=O)OC(C)(C)C)c2c1C(=O)N(CCl)S2(=O)=O
5,62,Cc1ccc(S(=O)(=O)C(CCCCCc2cccc(C(F)(F)F)c2)C(=O)O)cc1 (stereo not drawn)
6,112,CC(=O)N1CCC(C)(C)c2cc(F)cc(CCN3CCN(c4noc5ccccc45)CC3)c21
7,219 to 220,CC(=S)NCC1CC(c2ccc(N3CCSCC3)c(F)c2)=NO1 (stereo not drawn)
8,232,CC(O)c1ccc2c(NCc3ccc(NC(=O)c4ccc(F)cc4)cc3)nc(N(C)C)nc2c1 (stereo not drawn)
9,105 to 107,CC(=O)c1sc2c(Br)cccc2c1C
10,223 to 224,CC(C)(C)c1nnc(N)n(N)c1=O
11,75 to 77,CCOC(=O)c1noc(-c2ccc([N+](=O)[O-])cc2)n1
12,122 to 126,CCCc1cc(O)nc(SCc2ccccc2)n1
13,294 to 295,O=C(O)c1ccc(-c2cnc(-c3ccc(C(F)(F)F)cc3)s2)cc1
14,84 to 87,COC(=O)CN1CCN(C(=O)OC(C)(C)C)C(Cc2ccc(OCc3ccccc3)cc2)C1=O (stereo not drawn)
15,94 to 96,CC(C)(C)C(O)c1cncnc1 (stereo not drawn)
16,80 to 83,CC(C)(C)[Si](C)(C)Oc1ccc(N)c([N+](=O)[O-])c1
17,148,CCC(=NC#N)N(C)C(C)c1ccc(Cl)cc1Cl (stereo not drawn)
18,64 to 72,CCOCc1cc(COc2cc(CC)nc(C)c2OC)ccc1-c1ccccc1S(=O)(=O)Nc1noc(C)c1C
19,131,COc1cc(OC)c2c(c1)C(C)(C)C1(C=Cc3cc([N+](=O)[O-])cc(OC)c3S1)N2C (stereo not drawn)
20,100 to 101,CC(C)(C)C(=O)c1ccc(C(=O)NC(=O)c2ccc(F)cc2)cc1
21,137 to 138,CCCN(CCC)[C@H]1Cc2c[nH]c3ccc(C(=O)NN)c(c23)C1
22,> 200,CC(C)(C)OC(=O)N1CC(CCl)c2c1cc(N)c1ccccc21 (stereo not drawn)
23,181,Cc1cc2c(cc1C(F)(F)F)NC(=O)CC(c1cccc(-n3nncc3CNC3CC3)c1)=N2

row,melting point [°C],SMILES
1,138 to 141,CCc1nc2cc(C(F)(F)F)c(Cl)cc2n1-c1ccc(C[C@H](C)NC(=O)NS(=O)(=O)c2ccc(C)cc2)cc1
2,234 to 235,Cc1noc(NC(=O)N2CCN(c3ccnc(-c4ccc(F)cc4F)c3)CC2)c1C
3,194 to 195,CCCOc1cc(O)nc(N(C)C)n1
4,157,CCOC(=O)C1CN(CC)c2nc(SC)ncc2C1=O (stereo not drawn)
5,180 to 181,CCN(CC)c1cc(C)nc(Oc2c(C)cc(C)cc2C)c1C
6,248 to 250,O=C(O)c1cccc(-c2nc3cc(N4CCCC4)ccc3o2)c1
7,198 to 200,COC(=O)c1ccc(NC(=O)c2cc(C(C)C)c(C(C)C)o2)cc1
8,101 to 103,COc1ccc(C(=O)CCC2CCN(C(C)=O)CC2)cc1N
9,230,CCC(OC(=O)c1ccccc1)c1nc2c(C(F)(F)F)cccc2c(O)c1C(=O)Nc1nccs1 (stereo not drawn)
10,240 to 242,O=c1c(-c2ccccc2O)coc2c(O)c(O)ccc12
11,255 to 257,COc1cc(C(F)(F)F)ccc1-c1ccc2c(c1)S(=O)(=O)NC(C1CCCCC1)N2 (stereo not drawn)
12,236,CN(C)C=Nc1nc2c(nnn2C2CC(O)C(CO)O2)c(=O)[nH]1 (stereo not drawn)
13,204 to 206,COc1ccc(-c2nc(C(F)(F)F)c[nH]2)cc1
14,246 to 248,CC(C)(C)c1ccc(C(=O)Nc2cn3c4c(ccc3n2)OCC4)cn1
15,153 to 154,COc1cccc(-c2cnn3c(-c4cccc(NC(=O)CC(C)C)c4)ccnc23)c1
16,> 300,Nc1ccc2nc(O)c(O)nc2c1N
17,237 to 239,COc1ccc2c(c1)-c1ncc(C(=O)O)c(=O)n1CC2
18,95 to 97,CCNC(=O)n1nc(Oc2ccc([N+](=O)[O-])c(C(F)(F)F)c2)cc1C
19,56 to 57.5,CC(C)(C)c1cc(C=O)c(O)c(C(F)(F)F)c1
20,77,CN(C)C(=O)N(c1ccc(OC(F)(F)F)c(Cl)c1)C(C(=O)O)c1ccc(Cl)cc1 (stereo not drawn)
21,175 to 185,O=C(O)c1cccc(-c2ccc3c(c2)C(Oc2cccc(C(F)(F)F)c2)CC3)c1 (stereo not drawn)
22,206 to 208,CC(=O)NCc1ccc2c(c1)[C@@H](N1CCCC1=O)[C@H](O)C(C)(C)O2 (relative stereo)
